Source: US20070298994A1, “Use of 3-Mercapto-3-Methyl-Hexan-1-Ol for Use as Malodour Standard” (SYMRISE GMBH & CO. KG, priority 2004, published 2007)

Experiment: Odour threshold value in air on a dynamic olfactometer
Conditions: for odour threshold value in air: dynamic olfactometer, mean of 24 measured values (8 trained assessors, three passes), refers to the pure substance
Experimental: The odour threshold values in air were determined for the substance (E)-3-methyl-2-hexenoic acid also occurring in sweat and 3-mercapto-3-methyl-hexan-1-ol recently found in sweat.
The odour threshold value denotes the concentration of an olfactorily perceptible substance in air at which this can be distinguished from the odourless ambient air.
Determination is carried out on a dynamic olfactometer. A sample of 20 μl each of dilute solutions of the components is placed in a container with 7 l air. The samples in the olfactometer are diluted clearly below the odour threshold by defined addition of odourless air. In the olfactometer, the concentrations in the sample air are increased little by little until all the assessors have characterised a perception. A group of 8 trained assessors determines the concentration of the samples to be distinguished in odour from air on three passes each so that the mean value of 24 measured values leads to the respective concentrations. The (E)-3-methyl-2-hexenoic acid is measured at 1% and the 3-mercapto-3-methyl-hexan-1-ol at 0.1% in odourless dipropylene glycol. The different dilutions were taken into account for calculating the threshold values. The threshold values refer to the pure substances. The threshold value of the (E)-3-methyl-2-hexenoic acid was determined at 15.1 ng/l air. The threshold value for the 3-mercapto-3-methyl-hexan-1-ol was determined at 0.015 ng/l air. All assessors evaluated the threshold value of 3-mercapto-3-methyl-hexan-1-ol lower than (E)-3-methyl-2-hexenoic acid in all passes.

Compound | odour threshold value in air [ng/l air] | factor by which threshold value is lower than that of (E)-3-methyl-2-hexenoic acid (odour threshold values in air)
CCCC(C)(S)CCO (stereo not drawn) [3-mercapto-3-methyl-hexan-1-ol] | 0.015 | 1000
CCC/C(C)=C/C(=O)O [(E)-3-methyl-2-hexenoic acid, reference compound] | 15.1 | 
